Cc1cc(C#N)c(Nc2ccccc2[N+](=O)[O-])s1
Conditions	solubility (mole fraction)
in DMSO, 292.15 K	0.0519
in DMSO, 297.15 K	0.0588
in DMSO, 301.15 K	0.0671
in DMSO, 306.15 K	0.0734
in DMSO, 310.15 K	0.0801
in DMSO, 316.15 K	0.0913
in DMSO, 320.15 K	0.101
in DMSO, 325.15 K	0.112
in DMSO, 328.15 K	0.123
in DMSO, 332.15 K	0.135
in acetic acid, 293.15 K	0.00487
in acetic acid, 297.15 K	0.00588
in acetic acid, 302.15 K	0.00725
in acetic acid, 307.15 K	0.00881
in acetic acid, 311.15 K	0.0109
in acetic acid, 316.15 K	0.0127
in acetic acid, 320.15 K	0.0159
in acetic acid, 325.15 K	0.0202
in acetic acid, 329.15 K	0.0248
in acetic acid, 333.15 K	0.0306
in acetone, 292.15 K	0.0262
in acetone, 296.15 K	0.0322
in acetone, 302.15 K	0.0377
in acetone, 305.15 K	0.0444
in acetone, 311.15 K	0.0513
in acetone, 316.15 K	0.0604
in ethanol, 292.15 K	0.00106
in ethanol, 296.15 K	0.00131
in ethanol, 302.15 K	0.00163
in ethanol, 306.15 K	0.00214
in ethanol, 311.15 K	0.00274
in ethanol, 315.15 K	0.00345
in ethanol, 320.15 K	0.00427
in ethanol, 325.15 K	0.00528
in ethanol, 329.15 K	0.00638
in ethanol, 334.15 K	0.00766
in ethyl acetate, 293.15 K	0.0199
in ethyl acetate, 296.15 K	0.0227
in ethyl acetate, 302.15 K	0.0255
in ethyl acetate, 306.15 K	0.0315
in ethyl acetate, 311.15 K	0.0379
in ethyl acetate, 315.15 K	0.0442
in ethyl acetate, 320.15 K	0.0494
in ethyl acetate, 324.15 K	0.0591
in ethyl acetate, 329.15 K	0.0713
in ethyl acetate, 333.15 K	0.0858
in methanol, 292.15 K	0.00109
in methanol, 297.15 K	0.00145
in methanol, 302.15 K	0.00186
in methanol, 306.15 K	0.00233
in methanol, 311.15 K	0.00291
in methanol, 315.15 K	0.00368
in methanol, 320.15 K	0.00464
in methanol, 324.15 K	0.00575
